Reference: EP0489933A1, “BILE ALCOHOL AND DRUG CONTAINING THE SAME AS ACTIVE INGREDIENT” (TSUMURA CO., LTD., priority 1990, dated 1992)

Tests used:
erythrocytes = experiment: Erythrocyte deformability (filtration through 5 µm filter) after oral administration; assay type: in vivo, male rats of Wistar line; details: 30 mg/kg, p.o.; blood collected 90 minutes after administration; number of filtered erythrocytes
Protocol: In this experiment, 9-week-old male rats of Wistar line (5 to 6 individuals per one group) were used after rearing them for 1 week with normal feed. After 24 hours of fasting, each test drug was administered orally and, 90 minutes thereafter, blood sample was collected from lower abdominal vena cava of each rat under anesthesia with Nembutal® (1 ml/kg, i.p.). Blood samples obtained in this way were checked for their blood clotting time and erythrocyte deformability.
Measuring procedures are as follows.
Erythrocyte deformability ... The collected blood is extruded from a syringe with a constant flow of He in a holder equipped with a filter (5 µm). Weight of blood and the number of erythrocytes filtered during a fixed time are measured and the deformability is expressed based on the number of filtered erythrocytes. The results of these measurements are shown respectively in Tables 11 and 12.

[1] = test system: platelet rich plasma (PRP); experiment: Platelet aggregation in platelet rich plasma after oral administration; assay type: in vivo, male rat; details: 30 mg/kg, p.o., blood 90 minutes after administration
Protocol: Each drug to be tested was orally administered to each male rat which has been subjected to fasting treatment for 18 to 24 hours. After 90 minutes of the administration, median incision ventrotomy was carried out under ether anesthesia to collect 9 volumes of blood using a syringe filled with 1 volume of 3.8% sodium citrate solution (3.8% sodium citrate solution:blood = 1:9). After thorough mixing, the thus prepared mixture was centrifuged at 800 rpm for 10 minutes at room temperature to collect the resulting supernatant fluid as platelet rich plasma (PRP). The residual portion was centrifuged at 3,000 rpm for 15 minutes at room temperature to collect the resulting supernatant fluid as platelet poor plasma (PPP). The PRP was diluted with the PPP to adjust the number of platelets to 3×10⁵ ± 2×10⁴ cells/µl. A 450 µl portion of the thus diluted PRP was incubated at 37°C for 3 minutes and then mixed with 50 µl of 1×10⁻⁵ M of ADP or 1×10⁻⁵ g/ml of collagen. Thereafter, platelet aggregation test of the mixture was carried out using an aggregometer by measuring transmittance at 940 nm.

male mice of ddY line [2] = experiment: Blood oxygen and carbon dioxide partial pressure; assay type: in vivo; details: 20 mg/kg, i.p.; blood from abdominal aorta 60 minutes after administration
Protocol: In this experiment, 4-week-old male mice of ddY line (10 individuals per one group) were used after fasting treatment for 24 hours.
After 60 minutes of the administration of each compound of the present invention, each mouse was subjected to ventrotomy under anesthesia with Nembutal® (Dainabot Co., Ltd.; 50 mg/kg, i.p.) to collect blood from abdominal aorta, and the collected blood sample was immediately checked for its oxygen partial pressure (PO₂) and carbon dioxide partial pressure (PCO₂) using a blood-aerotonometer (Model 170, Ciba-Corning).

[3] = test system: rats of diabetes mellitus; experiment: Blood sugar level in streptozotocin-induced diabetes mellitus; assay type: in vivo, male rats of Wistar line; details: 50 mg/kg
Protocol: In this experiment, 8-week-old male rats of Wistar line (5 individuals per one group) were used after rearing them for 1 week with normal feed. Streptozotocin (40 mg/kg) was administered by tail intravenous injection to obtain rats of diabetes mellitus. Beginning after 1 week of the streptozotocin administration, oral administration of each test drug has been carried out for 1 week, followed by 24 hours of fasting. Thereafter, blood sample was collected from lower abdominal vena cava under anesthesia with Nembutal® (1 ml/kg, i.p.). Serum samples were prepared from the thus collected blood samples and checked for their blood sugar levels, with the results shown in Table 9.

red blood cells = experiment: Inhibition of thermal hemolysis of red blood cells; assay type: cell-based, donryu rats; details: 53°C for 20 minutes; for inhibition at 10 µM / inhibition at 50 µM / inhibition at 100 µM / inhibition at 200 µM / inhibition at 500 µM: Rattus norvegicus, Erythrocyte, 20 min, read-out: Hemolysis Inhibition Ratio (%) against Control
Protocol: Blood was collected from donryu rats of 150 to 200 g in body weight and centrifuged at 1,500 rpm for 5 minutes to obtain red blood cells. The red blood cells thus collected were diluted with 0.15 M phosphate buffer (pH 7.4) to prepare a 5% red blood cell suspension. A 3.8 ml portion of the thus prepared suspension was mixed with 0.2 ml solution of each compound of the present invention which has been adjusted to each level of the concentrations as shown in the following table, and the resulting mixture was shaken thoroughly and incubated at 53°C for 20 minutes. Thereafter, the thus incubated mixture was cooled rapidly with tap water and centrifuged at 3,000 rpm for 15 minutes, and absorbance at 540 nm of the resulting supernatant fluid was measured using a spectrophotometer (Hitachi: Type 200-20). Inhibition rate (%) of red blood cell hemolysis at each concentration of the compound was calculated based on the absorbance, with the results shown in Table 8.

male rats of SHR line = experiment: Blood pressure in SHR rats; assay type: in vivo; details: 10 mg/kg, p.o., 2 weeks
Protocol: In this experiment, 12-week-old male rats of SHR line (5 to 6 individuals per one group) were used after rearing them for 1 week with normal feed. Oral administration of each test drug has been carried out for 2 weeks and then blood pressure (mmHg) was measured using a small animal hemomanometer (UR-1000).

male mice of ddY line [4] = experiment: Survival time under hypoxia (aeration with 96% nitrogen and 4% oxygen); assay type: in vivo; details: 50 mg/kg, i.p., 60 minutes before aeration with 96% nitrogen and 4% oxygen; time to respiratory arrest
Protocol: In this experiment, 5 to 6-week-old male mice of ddY line (10 individuals per one group) were used after fasting treatment for 24 hours.
Each compound obtained in the present invention was administered intraperitoneally. After 60 minutes of the administration, each mouse was transferred separately into a transparent vessel (capacity, 1,000 ml) equipped with an air exit, and the vessel was aerated with a mixed gas consisting of 96% nitrogen and 4% oxygen at an aeration rate of 5 ℓ/min.
All tested mice died within 180 seconds after the commencement of the gas mixture aeration. Terminal respiration was observed several times prior to the respiratory arrest. Survival time of the control group was roughly in the range of from 96 to 111 seconds.

[5] = i.o., administered for 1 week beginning 1 week after streptozotocin (40 mg/kg), serum

Compound | Erythrocyte Deformation: Erythrocyte counts ±S.E. (erythrocytes) | Platelet Aggregation Ratio ±S.E. ([1]; ADP (1×10⁻⁵ M)) | Platelet Aggregation Ratio ±S.E. ([1]; Collagen (1×10⁻⁵ g/ml)) | Carbon Dioxide Partial Pressure (male mice of ddY line [2]) | Oxygen Partial Pressure (male mice of ddY line [2]) | Blood Sugar Level ± S.E. ([3]; 168 h) | Hemolysis Inhibition Ratio (%) against Control (red blood cells; 0.01 mM) | Hemolysis Inhibition Ratio (%) against Control (red blood cells; 0.05 mM) | Hemolysis Inhibition Ratio (%) against Control (red blood cells; 0.1 mM) | Hemolysis Inhibition Ratio (%) against Control (red blood cells; 0.2 mM) | Hemolysis Inhibition Ratio (%) against Control (red blood cells; 0.5 mM) | Blood Pressure ±S.E. Average (male rats of SHR line) | Blood Pressure ±S.E. Maximum (male rats of SHR line) | Survival Time ±S.E. (male mice of ddY line [4]) | Blood Sugar Level ± S.E. [3, 5] | inhibition at 10 µM (red blood cells; 0.01 mM) | inhibition at 50 µM (red blood cells; 0.05 mM) | inhibition at 100 µM (red blood cells; 0.1 mM) | inhibition at 200 µM (red blood cells; 0.2 mM) | inhibition at 500 µM (red blood cells; 0.5 mM)
CC(CCC1OCC1CO)C1CCC2C3C(O)CC4CC(O)CCC4(C)C3CC(O)C12C [Example 3, (24R)-(25S)-(+)-24,26-epoxy-5β-cholestane-3α,7α,12α,27-tetrol] | 3.55 ± 0.66 × 10⁷ | 42.5 ± 3.81% | 42.5 ± 1.85% | 45.5 mmHg | 86.1 mmHg | 143 ± 6.9 mg/dL | 33% | 30% | 24% | 51% | 70% | 150 ± 3.7 mmHg | 200 ± 7.7 mmHg | 113.2 ± 5.28 s |  |  |  |  |  | 
C[C@H](CC[C@H]1OC[C@H]1CO)[C@H]1CC[C@H]2[C@@H]3[C@H](O)C[C@@H]4C[C@H](O)CC[C@]4(C)[C@H]3C[C@H](O)[C@]12C [Example 4, (24R)-(25R)-(+)-24,26-epoxy-5β-cholestane-3α,7α,12α,27-tetrol] | 3.97 ± 0.39 × 10⁷ | 46.1 ± 2.65% | 47.7 ± 3.88% | 39.1 mmHg | 85.3 mmHg |  |  |  |  |  |  | 153 ± 2.8 mmHg | 205 ± 7.8 mmHg | 115.5 ± 3.88 s | 181 ± 8.9 mg/dL | 27% | 21% | 31% | 44% | 48%
C[C@H](CC[C@@H](O)C1COC1)[C@H]1CC[C@H]2[C@@H]3[C@H](O)C[C@@H]4C[C@H](O)CC[C@]4(C)[C@H]3C[C@H](O)[C@]12C [Example 5, (24R)-(+)-26,27-epoxy-5β-cholestane-3α,7α,12α,24-tetrol] | 4.10 ± 0.55 × 10⁷ | 48.5 ± 3.31% | 48.1 ± 2.65% | 39.9 mmHg | 87.1 mmHg |  |  |  |  |  |  | 148 ± 3.5 mmHg | 181 ± 3.5 mmHg | 110.0 ± 5.10 s | 122 ± 7.8 mg/dL | 23% | 19% | 30% | 41% | 61%
C[C@H](CCCC(CO)CO)[C@H]1CC[C@H]2[C@@H]3[C@H](O)C[C@@H]4C[C@H](O)CC[C@]4(C)[C@H]3C[C@H](O)[C@]12C [Example 6, 3α,7α,12α,26,27-pentahydroxy-5β-cholestane] | 3.81 ± 0.44 × 10⁷ | 50.1 ± 2.33% | 42.3 ± 3.83% | 40.3 mmHg | 83.5 mmHg |  |  |  |  |  |  | 131 ± 3.7 mmHg | 178 ± 3.3 mmHg | 127.5 ± 9.26 s | 138 ± 6.8 mg/dL | 33% | 25% | 20% | 41% | 62%
C[C@H](CCCC(CO)CO)[C@H]1CC[C@H]2[C@@H]3[C@H](O)C[C@H]4C[C@H](O)CC[C@]4(C)[C@H]3C[C@H](O)[C@]12C [Example 7, 3α,7α,12α,26,27-pentahydroxy-5α-cholestane] | 4.02 ± 0.37 × 10⁷ | 44.3 ± 2.43% | 42.1 ± 3.15% | 41.1 mmHg | 81.1 mmHg |  |  |  |  |  |  | 155 ± 3.6 mmHg | 198 ± 3.7 mmHg | 121.5 ± 6.00 s | 161 ± 5.5 mg/dL | 32% | 21% | 31% | 61% | 70%
C[C@H](CC[C@H](O)C(CO)CO)[C@H]1CC[C@H]2[C@@H]3[C@H](O)C[C@@H]4C[C@H](O)CC[C@]4(C)[C@H]3C[C@H](O)[C@]12C [Example 8, (24S)-3α,7α,12α,24,26,27-hexahydroxy-5β-cholestane] | 4.53 ± 0.82 × 10⁷ | 41.8 ± 1.81% | 46.6 ± 3.81% | 42.1 mmHg | 98.7 mmHg |  |  |  |  |  |  | 151 ± 9.5 mmHg | 180 ± 6.6 mmHg | 144.8 ± 10.27 s | 112 ± 8.4 mg/dL | 27% | 20% | 37% | 50% | 60%
C[C@H](CC[C@H](O)[C@@H](C)CO)[C@H]1CC[C@H]2[C@@H]3[C@H](O)C[C@@H]4C[C@H](O)CC[C@]4(C)[C@H]3C[C@H](O)[C@]12C [Example 9, (24S)-(25S)-3α,7α,12α,24,26-pentahydroxy-5β-cholestane] | 4.11 ± 0.44 × 10⁷ | 41.1 ± 1.21% | 49.1 ± 1.11% | 43.3 mmHg | 88.1 mmHg |  |  |  |  |  |  | 150 ± 8.9 mmHg | 199 ± 5.4 mmHg | 126.5 ± 5.21 s | 125 ± 6.6 mg/dL | 28% | 23% | 38% | 51% | 65%
